Assay results: US20240366521A1, “NANOPARTICLES AND METHODS OF USE” (Qana Therapeutics Inc., priority 2023, published 2024)

Experiment: Solvent screen of MMAE
Assay type: physicochemical
Details: acetone, ethanol, and isopropanol
Protocol: A solvent screen of MMAE was conducted.

SMILES: CCC(C)C(C(CC(=O)N1CCCC1C(OC)C(C)C(=O)NC(C)C(O)c1ccccc1)OC)N(C)C(=O)C(NC(=O)C(NC)C(C)C)C(C)C (stereo not shown) [MMAE, monomethyl auristatin E]
- solubility of MMAE in solvent: good solubility
